This passage reports IC50 results from patent EP4741392A1, “1H-PYRAZOLO[4,3-C]PYRIDINE COMPOUND, AND COMPOSITION THEREOF AND USE THEREOF” (Shenzhen TargetRx Co., Ltd., priority 2023, dated 2025).

SMILES strings stand for the structures. pIC50: −log10 of the molar value. Some results are limits rather than exact numbers.

Holding throughout (assay): Kinase activity inhibition assay (HTRF TK Kit), selectivity
Holding throughout (format): biochemical

Assay [1] concerns the target T1, EGFR (Homo sapiens, UniProt P00533).
T1 construct: purchased Carna 08-115
A digest of the protocol:
(§1)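 HTRF TK assay set up on ice: compound, then biotinylated substrate plus ATP, then kinase, reacted at room temperature; streptavidin-XL665 and TK antibody-cryptate added for 1 h. The 665/620 nm ratio gave % inhibition versus no-kinase blank and kinase-plus-1% DMSO controls; IC50 from four-parameter nonlinear fit.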

Assay [2] addresses T2, ITK (Homo sapiens, UniProt Q08881).
T2 construct: purchased Carna 08-181
T2 sequence (Q08881 1-620): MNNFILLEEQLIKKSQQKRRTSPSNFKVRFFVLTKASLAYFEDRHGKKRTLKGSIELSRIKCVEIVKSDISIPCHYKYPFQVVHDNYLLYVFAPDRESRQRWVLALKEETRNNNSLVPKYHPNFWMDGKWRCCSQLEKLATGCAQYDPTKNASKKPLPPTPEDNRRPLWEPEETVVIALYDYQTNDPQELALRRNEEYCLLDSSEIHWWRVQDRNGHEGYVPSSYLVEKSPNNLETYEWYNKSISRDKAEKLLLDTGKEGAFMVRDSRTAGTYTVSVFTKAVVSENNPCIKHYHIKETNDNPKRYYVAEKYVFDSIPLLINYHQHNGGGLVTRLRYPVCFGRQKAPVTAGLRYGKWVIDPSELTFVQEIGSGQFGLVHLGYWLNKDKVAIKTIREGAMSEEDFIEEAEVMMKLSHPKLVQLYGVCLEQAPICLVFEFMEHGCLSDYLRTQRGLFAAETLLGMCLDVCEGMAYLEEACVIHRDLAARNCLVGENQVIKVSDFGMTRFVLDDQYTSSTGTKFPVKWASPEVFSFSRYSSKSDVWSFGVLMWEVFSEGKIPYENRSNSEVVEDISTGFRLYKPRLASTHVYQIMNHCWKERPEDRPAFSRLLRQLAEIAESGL
A digest of the protocol:
as §1

The target in assay [3] is T3, TEC (Homo sapiens, UniProt P42680).
T3 construct: purchased Carna 08-182
T3 sequence (P42680 1-631): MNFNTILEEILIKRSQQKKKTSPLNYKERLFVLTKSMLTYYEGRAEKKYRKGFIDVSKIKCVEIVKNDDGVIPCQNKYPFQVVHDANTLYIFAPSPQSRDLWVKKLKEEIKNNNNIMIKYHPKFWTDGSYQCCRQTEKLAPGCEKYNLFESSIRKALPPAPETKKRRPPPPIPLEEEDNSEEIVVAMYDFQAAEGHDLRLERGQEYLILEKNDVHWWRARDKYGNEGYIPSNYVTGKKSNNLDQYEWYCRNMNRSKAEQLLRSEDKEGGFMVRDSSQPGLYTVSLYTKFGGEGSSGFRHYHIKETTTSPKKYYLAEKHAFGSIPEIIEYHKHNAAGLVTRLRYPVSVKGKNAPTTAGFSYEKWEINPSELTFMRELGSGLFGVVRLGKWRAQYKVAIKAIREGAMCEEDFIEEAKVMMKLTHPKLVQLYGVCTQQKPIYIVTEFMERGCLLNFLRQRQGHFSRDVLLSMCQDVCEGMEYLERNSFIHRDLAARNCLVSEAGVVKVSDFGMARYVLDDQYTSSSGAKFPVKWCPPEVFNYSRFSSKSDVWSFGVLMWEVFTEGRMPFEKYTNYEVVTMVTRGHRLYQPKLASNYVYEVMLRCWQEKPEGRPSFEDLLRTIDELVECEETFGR
A digest of the protocol:
as §1

T1 sequence (P00533 669-1210 limits assumed): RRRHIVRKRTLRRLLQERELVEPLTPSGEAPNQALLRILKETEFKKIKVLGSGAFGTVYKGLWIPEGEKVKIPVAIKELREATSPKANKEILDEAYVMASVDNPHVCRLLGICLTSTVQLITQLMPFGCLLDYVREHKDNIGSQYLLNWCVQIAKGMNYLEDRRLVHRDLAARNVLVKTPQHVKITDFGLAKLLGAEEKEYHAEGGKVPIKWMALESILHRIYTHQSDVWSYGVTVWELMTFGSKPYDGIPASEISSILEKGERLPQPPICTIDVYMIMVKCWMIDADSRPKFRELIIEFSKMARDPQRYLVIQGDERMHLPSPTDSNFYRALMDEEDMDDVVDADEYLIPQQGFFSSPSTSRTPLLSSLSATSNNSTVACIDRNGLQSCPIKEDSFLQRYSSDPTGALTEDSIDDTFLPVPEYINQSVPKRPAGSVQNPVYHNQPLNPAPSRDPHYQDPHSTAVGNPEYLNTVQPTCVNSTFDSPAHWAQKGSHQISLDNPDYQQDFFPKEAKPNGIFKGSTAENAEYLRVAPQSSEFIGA

The pIC50 is −log10 of the IC50, conventionally taken in molar units. `COc1ccc(F)cc1C(=O)NCc1ccc(-c2ncc(-c3ccc(N4CCN(C)C[C@H]4C)cn3)c3[nH]nc(N)c23)cc1` [Example 75, (R)-N-(-4-(3-amino-7-(5-(2,4-dimethylpiperazin-1-yl)pyridin-2-yl) 1H-pyrazolo[4,3-c]pyridin-4-yl)benzyl)-5-fluoro-2-methoxybenzamide]: the pIC50 in assay [1], in assay [2] and in assay [3] was 7.30 to 8.30 in each case.

Consider `COc1ccc(F)cc1C(=O)NCc1ccc(-c2ncc(-c3ccc(N4CCOCC4)cn3)c3[nH]nc(N)c23)cc1` [Example 76, N-(4-(3-amino-7-(5-morpholinopyridin-2-yl)-1H-pyrazolo[4,3-c]pyridin-4-yl)benzyl)-5-fluoro-2-methoxybenzamide], for which the pIC50 is 7.30 to 8.30 in assay [1], 6.30 to 7.30 in assay [2] and 8.30 to 9.00 in assay [3].

As to `COc1ccc(F)cc1C(=O)NCc1ccc(-c2ncc(-c3nccn4cccc34)c3[nH]nc(N)c23)cc1` [Example 77, N-(4-(3-amino-7-(pyrrolo[1,2-a]pyrazin-1-yl)-1H-pyrazolo[4,3-c]pyridin-4-yl)benzyl)-5-fluoro-2-methoxybenzamide], the pIC50 was 6.30 to 7.30 in assay [1], less than 6.30 in assay [2] and 7.30 to 8.30 in assay [3].

As for `COc1ccc(F)cc1C(=O)NCc1ccc(-c2ncc(-c3cc4cnccn4n3)c3[nH]nc(N)c23)cc1` [Example 78, N-(4-(3-amino-7-(pyrazolo[1,5-a]pyrazin-2-yl)-1H-pyrazolo[4,3-c]pyridin-4-yl)benzyl)-5-fluoro-2-methoxybenzamide], the pIC50 in assay [1] is 7.30 to 8.30; in assay [2], 6.30 to 7.30; in assay [3], 7.30 to 8.30.

For `COc1ccc(F)cc1C(=O)NCc1ccc(-c2ncc(-c3ccc(NC(=O)C4CC4)cn3)c3[nH]nc(N)c23)cc1` [Example 79, N-(4-(3-amino-7-(5-(cyclopropaneformamido)pyridin-2-yl)-1H-pyrazolo[4,3-c]pyridin-4-yl)benzyl)-5-fluoro-2-methoxybenzamide], the pIC50 in assay [1], in assay [2] and in assay [3] was less than 6.30 throughout.

For the compound `COc1ccc(F)cc1C(=O)NCc1ccc(-c2ncc(-c3cc(NC(=O)C4CC4)ccn3)c3[nH]nc(N)c23)cc1` [Example 80, N-(4-(3-amino-7-(4-(cyclopropaneformamido)pyridin-2-yl)-1H-pyrazolo[4,3-c]pyridin-4-yl)benzyl)-5-fluoro-2-methoxybenzamide], the pIC50 was 6.30 to 7.30 in assay [1], less than 6.30 in assay [2] and 7.30 to 8.30 in assay [3].

For the compound `COc1ccc(F)cc1C(=O)NCc1ccc(-c2ncc(-c3ccc(F)cn3)c3[nH]nc(N)c23)c(F)c1` [Example 82, N-(4-(3-amino-7-(5-fluoropyridin-2-yl)-1H-pyrazolo[4,3-c]pyridin-4-yl)-3-fluorobenzyl)-5-fluoro-2-methoxybenzamide], the figures for the pIC50 in assay [1], in assay [2] and in assay [3] were less than 6.30, less than 6.30 and 6.30 to 7.30, respectively.

On to `COc1ccc(F)cc1C(=O)NCc1ccc(-c2nc(C)c(-c3ncccn3)c3[nH]nc(N)c23)cc1` [Example 84, N-(4-(3-amino-6-methyl-7-(pyrimidin-2-yl)-1H-pyrazolo[4,3-c]pyridin-4-yl)benzyl)-5-fluoro-2-methoxybenzamide], for which the pIC50 in assay [1], in assay [2] and in assay [3] was less than 6.30 throughout.

Regarding `COc1ccc(F)cc1C(=O)NCc1ccc(-c2nc(C(F)F)c(-c3ncccn3)c3[nH]nc(N)c23)cc1` [Example 85, N-(4-(3-amino-6-(difluoromethyl)-7-(pyrimidin-2-yl)-1H-pyrazolo[4,3-c]pyridin-4-yl)benzyl)-5-fluoro-2-methoxybenzamide], the pIC50 in assay [1] was less than 6.30; in assay [2], less than 6.30; in assay [3], 6.30 to 7.30.

Turning to `COc1ccc(F)cc1C(=O)NCc1ccc(-c2nc(C3CCSCC3)cc3[nH]nc(N)c23)cc1` [Example 91, N-(4-(3-amino-6-(tetrahydro-2H-thiopyran-4-yl)-1H-pyrazolo[4,3-c]pyridin-4-yl)benzyl)-5-fluoro-2-methoxybenzamide], the pIC50 in assay [1] was 6.30 to 7.30; in assay [2], less than 6.30; in assay [3], 6.30 to 7.30.

For `C=CC(=O)N1CCCC(c2cc3[nH]nc(N)c3c(-c3ccc(CNC(=O)c4cc(F)ccc4OC)cc3)n2)C1` (stereo not drawn) [Example 96, N-(4-(6-(1-acryloylpiperidin-3-yl)-3-amino-1H-pyrazolo[4,3-c]pyridin-4-yl)benzyl)-5-fluoro-2-methoxybenzamide], the negative logarithm of the IC50 (pIC50) is 6.30 to 7.30 in assay [1], less than 6.30 in assay [2] and 7.30 to 8.30 in assay [3].

For `COc1ccc(F)cc1C(=O)NCc1ccc(-c2ncc(-c3nccn4nccc34)c3[nH]nc(N)c23)cc1` [Example 98, N-(4-(3-amino-7-(pyrazolo[1,5-a]pyrazin-4-yl)-1H-pyrazolo[4,3-c]pyridin-4-yl)benzyl)-5-fluoro-2-methoxybenzamide], the results for the negative logarithm of the IC50 (pIC50) in assay [1], in assay [2] and in assay [3] were 6.30 to 7.30, less than 6.30 and 7.30 to 8.30, respectively.

With `COc1ccc(F)cc1C(=O)NCc1ccc(-c2ncc(-c3nc4ccccc4s3)c3[nH]nc(N)c23)cc1` [Example 99, N-(4-(3-amino-7-(benzo[d]thiazol-2-yl)-1H-pyrazolo[4,3-c]pyridin-4-yl)benzyl)-5-fluoro-2-methoxybenzamide], the pIC50 in assay [1] is 6.30 to 7.30; in assay [2], less than 6.30; in assay [3], 7.30 to 8.30.

Turning to `COc1ccc(F)cc1C(=O)NCc1ccc(-c2ncc(-c3nc4cccnc4s3)c3[nH]nc(N)c23)cc1` [Example 100, N-(4-(3-amino-7-(thiazolo[5,4-b]pyridin-2-yl)-1H-pyrazolo[4,3-c]pyridin-4-yl)benzyl)-5-fluoro-2-methoxybenzamide], the pIC50 was 6.30 to 7.30 in assay [1], less than 6.30 in assay [2] and 7.30 to 8.30 in assay [3].

Consider `CCN1CCc2nc(-c3cnc(-c4ccc(CNC(=O)c5cc(F)ccc5OC)cc4)c4c(N)n[nH]c34)sc2C1` [Example 101, N-(4-(3-amino-7-(5-ethyl-4,5,6,7-tetrahydrothiazolo[5,4-c]pyridin-2-yl)-1H-pyrazolo[4,3-c]pyridin-4-yl)benzyl)-5-fluoro-2-methoxybenzamide], for which the values for the negative-log IC50 (pIC50) in assay [1], in assay [2] and in assay [3] were 6.30 to 7.30, 6.30 to 7.30 and 7.30 to 8.30, respectively.

In the case of `COc1ccc(F)cc1C(=O)NCc1ccc(-c2ncc(-c3ccc4c(n3)nc3n4CCOC3)c3[nH]nc(N)c23)cc1` [Example 102, N-(4-(3-amino-7-(6,7-dihydro-9H-pyrido[2',3':4,5]imidazo[2,1-c][1,4]oxazin-2-yl)-1H-pyrazolo[4,3-c]pyridin-4-yl)benzyl)-5-fluoro-2-methoxybenzamide], the negative logarithm of the IC50 (pIC50) in assay [1] is 6.30 to 7.30; in assay [2], less than 6.30; in assay [3] it was less than 6.30.

For the compound `COc1ccc(F)cc1C(=O)NCc1ccc(-c2ncc(-c3ccc4c(n3)nc3n4C(C)COC3)c3[nH]nc(N)c23)cc1` (stereo not drawn) [Example 103, N-(4-(3-amino-7-(6-methyl-6,7-dihydro-9H-pyrido[2',3':4,5]imidazo[2,1-c][1,4]oxazin-2-yl)-1H-pyrazolo[4,3-c]pyridin-4-yl)benzyl)-5-fluoro-2-methoxybenzamide], the results for the negative-log IC50 (pIC50) in assay [1], in assay [2] and in assay [3] were 6.30 to 7.30, less than 6.30 and less than 6.30, respectively.

As to `COc1ccc(F)cc1C(=O)NCc1ccc(-c2ncc(-c3cccnc3)c3[nH]nc(N)c23)cc1` [Example 105, N-(4-(3-amino-7-(pyridin-3-yl)-1H-pyrazolo[4,3-c]pyridin-4-yl)benzyl)-5-fluoro-2-methoxybenzamide], the negative-log IC50 (pIC50) in assay [1], in assay [2] and in assay [3] was less than 6.30 each time.

In the case of `COc1ccc(F)cc1C(=O)NCc1ccc(-c2ncc(-c3ccncc3)c3[nH]nc(N)c23)cc1` [Example 106, N-(4-(3-amino-7-(pyridin-4-yl)-1H-pyrazolo[4,3-c]pyridin-4-yl)benzyl)-5-fluoro-2-methoxybenzamide], the negative-log IC50 (pIC50) in assay [1], in assay [2] and in assay [3] was less than 6.30 in each case.
